# Source: patent US8841508B2, “Non-human mammalian animal model for type 2 diabetes” (National University Corporation, priority 2009, dated 2014)
# Columns and labels:
# [1] = system: KO mice (Cdkal1 knock-out mice, type 2 diabetes model); test: Screening simulation: fasting and glucose-tolerance blood glucose level after Exendin-4 in KO mice; type: in vivo, mouse; details: intraperitoneal, 0.1 mg per kg twice a day, after 1 week and 2 weeks, ANOVA p=0.02
# Protocol: (§1) To the KO mice used for the verification of periodical changes of blood glucose level, Exendin-4 which is an agonist of a glucagon-like peptide-1 receptor known as a therapeutic agent for type 2 diabetes was intraperitoneally administrated as a test substance. A degree of type 2 diabetes was then evaluated using the KO mice to simulate the screening of the preventive or therapeutic agent for type 2 diabetes caused by the Cdkal1 abnormality.
# (§2) The procedures for evaluating the degree of type 2 diabetes consists of measuring the fasting blood glucose level and glucose-tolerance blood glucose level for KO mice and WT mice, comparing the blood glucose levels for both of the mice, and evaluating them. In this test, Exendin-4 was administered twice a day for 2 weeks at a rate of 0.1 mg per kg, of body weight.
# [2] = system: WT mice (wild type mice); test: Screening simulation: fasting and glucose-tolerance blood glucose level after Exendin-4 in WT mice; type: in vivo, mouse; details: intraperitoneal, 0.1 mg per kg twice a day, after 1 week and 2 weeks, ANOVA p=0.02
# Protocol: as §1, §2
substance,measurement,setting,value
Exendin-4,glucose tolerance (blood glucose level after glucose tolerance),[1],significantly improved glucose tolerance
same,glucose tolerance (blood glucose level after glucose tolerance),[2],significantly improved glucose tolerance
